# Tested on: HCV genotype-1a variant with glutamine 30 changed to glutamate in the NS5A protein
# Type: cell-based
# Conditions: test compound titrated with BMS-790052 fixed at 200 nM; genotype 1a Q30E replicon
# How it was run: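 Synergy was assessed by combining several fixed amounts of an NS5A-targeting compound with a titration of the second compound of interest.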
row,Compound,Fold-Synergistic 1a (Q30E)
1,Cc1onc(-c2ccccc2)c1C(=O)N[C@H](c1ncc(-c2ccc(-c3ccc(-c4cnc([C@@H](NC(=O)c5c(-c6ccccc6)noc5C)C(C)C)[nH]4)cc3)cc2)[nH]1)C(C)C [Compound S-85],>100 fold
2,COC(C)(CO)C(=O)N[C@H](c1nc(-c2ccc(-c3ccc(-c4c[nH]c([C@@H](NC(=O)C(C)(CO)OC)C(C)(C)C)n4)cc3)cc2)c[nH]1)C(C)(C)C (some centres unmarked) [Compound W-235],>100 fold
3,CC(C)C(NC(=O)C(=O)N(CC(F)(F)F)C(C)C)c1nc(-c2ccc(-c3ccc(-c4c[nH]c(C(NC(=O)C(=O)N(CC(F)(F)F)C(C)C)C(C)C)n4)cc3)cc2)c[nH]1 (centres unmarked) [Compound W-65],>100 fold
4,CC(C)[C@H](NC(=O)C(C)(C)OCC(F)F)c1nc(-c2ccc(-c3ccc(-c4c[nH]c([C@@H](NC(=O)C(C)(C)OCC(F)F)C(C)C)n4)c(F)c3)cc2)c[nH]1.O=C(O)C(F)(F)F [Compound N-91],>100 fold
5,CN(C(=O)OC(C)(C)C)C1(C(=O)N[C@H](c2nc(-c3ccc(-c4ccc(-c5c[nH]c([C@@H](NC(=O)C6(N(C)C(=O)OC(C)(C)C)CC6)C(C)(C)C)n5)cc4)cc3)c[nH]2)C(C)(C)C)CC1.O=C(O)C(F)(F)F.O=C(O)C(F)(F)F [Compound L-13],>100 fold
6,CC(C)(C)[C@H](NC(=O)c1ccc(C(F)(F)F)s1)c1nc(-c2ccc(-c3ccc(-c4c[nH]c([C@@H](NC(=O)c5ccc(C(F)(F)F)s5)C(C)(C)C)n4)cc3)cc2)c[nH]1 [Compound N-114],>100 fold
7,"CC1(C)CC1C(=O)N[C@H](c1ncc(-c2ccc(-c3ccc(-c4cnc([C@@H](NC(=O)C5CC5(C)C)C(C)(C)C)[nH]4)cc3)cc2)[nH]1)C(C)(C)C (single isomer, unassigned) [Compound B80]",>100 fold
8,CC(C)(C)C(NC(=O)C1CC12CCC(F)(F)CC2)c1nc(-c2ccc(-c3ccc(-c4c[nH]c(C(NC(=O)C5CC56CCC(F)(F)CC6)C(C)(C)C)n4)cc3)cc2)c[nH]1 (mixture of isomers) [Compound Y-70],>100 fold
9,CC(C)[C@H](NC(=O)C(=O)C1(C)CCCO1)c1ncc(-c2ccc(-c3ccc(-c4cnc([C@@H](NC(=O)C(=O)C5(C)CCCO5)C(C)C)[nH]4)cc3)cc2)[nH]1 (some centres unmarked) [Compound P-118],>100 fold
10,CC(C)(C)[C@H](NC(=O)C1CCC(C(F)F)CC1)c1nc(-c2ccc(-c3ccc(-c4c[nH]c([C@@H](NC(=O)C5CCC(C(F)F)CC5)C(C)(C)C)n4)cc3)cc2)c[nH]1 (some centres unmarked) [Compound Y-71],>100 fold
11,CC(C)[C@H](NC(=O)[C@@H]1Cc2ccccc21)c1ncc(-c2ccc(-c3ccc(-c4cnc([C@@H](NC(=O)[C@@H]5Cc6ccccc65)C(C)C)[nH]4)cc3)cc2)[nH]1 [Compound P-110],>100 fold
12,COc1ccc2c(C(=O)N3CCC[C@H]3c3ncc(-c4ccc(-c5ccc(-c6cnc([C@@H]7CCCN7C(=O)c7nccc8cc(OC)ccc78)[nH]6)cc5)cc4)[nH]3)nccc2c1 [Compound S-198],>100 fold
13,CC(C)(C)[C@H](NC(=O)C1CCC(=C(F)F)CC1)c1nc(-c2ccc(-c3ccc(-c4c[nH]c([C@@H](NC(=O)C5CCC(=C(F)F)CC5)C(C)(C)C)n4)cc3)cc2)c[nH]1 (some centres unmarked) [Compound N-121],>100 fold
14,CC(C)[C@H](NC(=O)C1CCC(F)(F)CC1)c1ncc(-c2ccc3c(c2)Cc2cc(-c4cnc([C@@H](NC(=O)C5CCC(F)(F)CC5)C(C)C)[nH]4)ccc2-3)[nH]1.O=C(O)C(F)(F)F [Compound N-70],>100 fold
15,CC(C)(C)[C@H](NC(=O)C(=O)N1CCC(F)(F)CC1)c1nc(-c2ccc(-c3ccc(-c4c[nH]c([C@@H](NC(=O)C(=O)N5CCC(F)(F)CC5)C(C)(C)C)n4)cc3)cc2)c[nH]1 [Compound W-24],>100 fold
16,Cc1cccc(C(=O)N[C@H](c2ncc(-c3ccc(-c4ccc(-c5cnc([C@@H](NC(=O)c6cccc(C)c6)C(C)C)[nH]5)cc4)cc3)[nH]2)C(C)C)c1 [Compound S-80],>100 fold
17,"CC(C)(C)[C@H](NC(=O)C1CC12CCOCC2)c1ncc(-c2ccc(-c3ccc(-c4cnc([C@@H](NC(=O)C5CC56CCOCC6)C(C)(C)C)[nH]4)cc3)cc2)[nH]1 (single isomer, unassigned) [Compound B72]",>100 fold
18,CC(C)CC(=O)N(C)C(c1ncc(-c2ccc(-c3ccc(-c4cnc(C(C(C)C)N(C)C(=O)CC(C)C)[nH]4)cc3)cc2)[nH]1)C(C)C (centres unmarked) [Compound P-54],>100 fold
19,CC1(C)CC(C(=O)N[C@H](c2nc(-c3ccc(-c4ccc(-c5c[nH]c([C@@H](NC(=O)C6CCOC(C)(C)C6)C(C)(C)C)n5)cc4)cc3)c[nH]2)C(C)(C)C)CCO1 (some centres unmarked) [Compound W-122],>100 fold
20,CC1(C(NC(=O)C2(O)CCC(F)(F)CC2)c2nc(-c3ccc(-c4ccc(-c5c[nH]c(C(NC(=O)C6(O)CCC(F)(F)CC6)C6(C)CC6)n5)cc4)cc3)c[nH]2)CC1.O=C(O)C(F)(F)F.O=C(O)C(F)(F)F (centres unmarked) [Compound P-151],>100 fold
21,CC(C)[C@H](NC(=O)c1ccc(Cl)cc1)c1ncc(-c2ccc(-c3ccc(-c4cnc([C@@H](NC(=O)c5ccc(Cl)cc5)C(C)C)[nH]4)cc3)cc2)[nH]1 [Compound S-83],>100 fold

row,Compound,Fold-Synergistic 1a (Q30E)
1,CC(C)C(c1ncc(-c2ccc(-c3ccc(-c4cnc(C(C(C)C)N5CCCCC5=O)[nH]4)cc3)cc2)[nH]1)N1CCCCC1=O (centres unmarked) [Compound P-52],>10 fold
2,CC(C)[C@H](NC(=O)C1CC1)c1ncc(-c2ccc(-c3ccc(-c4cnc([C@@H](NC(=O)C5CC5)C(C)C)[nH]4)cc3)cc2)[nH]1 [Compound S-20],>100 fold
3,CC(C)(C)[C@H](NC(=O)CC1CCC(F)(F)CC1)c1nc(-c2ccc(-c3ccc(-c4c[nH]c([C@@H](NC(=O)CC5CCC(F)(F)CC5)C(C)(C)C)n4)cc3)cc2)c[nH]1 [Compound N-112],>100 fold
4,CC(C)[C@H](NC(=O)c1ccccc1F)c1ncc(-c2ccc(-c3ccc(-c4cnc([C@@H](NC(=O)c5ccccc5F)C(C)C)[nH]4)cc3)cc2)[nH]1 [Compound P-63],>100 fold
5,CC(C)[C@H](NC(=O)c1cccs1)c1ncc(-c2ccc(-c3ccc(-c4cnc([C@@H](NC(=O)c5cccs5)C(C)C)[nH]4)cc3)cc2)[nH]1 [Compound S-14],>100 fold
6,CC(C)[C@H](NC(=O)c1ccc(C(F)(F)F)cc1)c1ncc(-c2ccc(-c3ccc(-c4cnc([C@@H](NC(=O)c5ccc(C(F)(F)F)cc5)C(C)C)[nH]4)cc3)cc2)[nH]1 [Compound S-84],>100 fold
7,COc1cccc(CC(=O)N[C@H](c2ncc(-c3ccc(-c4ccc(-c5cnc([C@@H](NC(=O)Cc6cccc(OC)c6)C(C)C)[nH]5)cc4)cc3)[nH]2)C(C)C)c1 [Compound S-40],>100 fold
8,CC[C@H](C(=O)N[C@H](c1ncc(-c2ccc(-c3ccc(-c4cnc([C@@H](NC(=O)[C@@H](CC)c5ccccc5)C(C)C)[nH]4)cc3)cc2)[nH]1)C(C)C)c1ccccc1 [Compound P-61],>100 fold
9,CC(C)(C)[C@H](NC(=O)C(=O)N1CC(F)(F)C1)c1nc(-c2ccc(-c3ccc(-c4c[nH]c([C@@H](NC(=O)C(=O)N5CC(F)(F)C5)C(C)(C)C)n4)cc3)cc2)c[nH]1 [Compound W-28],>100 fold
10,"CC(C)(C(=O)N[C@H](c1nc(-c2ccc(-c3ccc(-c4c[nH]c([C@@H](NC(=O)C(C)(C)C(O)C5CC(F)(F)C5)C(C)(C)C)n4)cc3)cc2)c[nH]1)C(C)(C)C)C(O)C1CC(F)(F)C1 (single isomer, unassigned) [Compound N-144B]",>100 fold
11,CC(C)(C)[C@H](NC(=O)C(C)(C)n1cnc(C(F)(F)F)c1)c1nc(-c2ccc(-c3ccc(-c4c[nH]c([C@@H](NC(=O)C(C)(C)n5cnc(C(F)(F)F)c5)C(C)(C)C)n4)cc3)cc2)c[nH]1 [Compound W-150],>100 fold
12,COCC(C)(COC)C(=O)NC(c1nc(-c2ccc(-c3ccc(-c4c[nH]c(C(NC(=O)C(C)(COC)COC)C(C)(C)C)n4)cc3)cc2)c[nH]1)C(C)(C)C [Compound L-123],>100 fold
13,CC1CN(C(=O)C(=O)NC(c2nc(-c3ccc(-c4ccc(-c5c[nH]c(C(NC(=O)C(=O)N6CC(C)OC(C)C6)C(C)C)n5)cc4)cc3)c[nH]2)C(C)C)CC(C)O1 (centres unmarked) [Compound W-54],>100 fold
14,CN(CC(F)(F)F)C(C)(C)C(=O)NC(c1nc(-c2ccc(-c3ccc(-c4c[nH]c(C(NC(=O)C(C)(C)N(C)CC(F)(F)F)C(C)(C)C)n4)cc3)cc2)c[nH]1)C(C)(C)C [Compound L-62],>100 fold
15,CC(C)[C@H](NC(=O)[C@H](NC(=O)OCc1ccccc1)C(C)C)c1ncc(-c2ccc(-c3ccc(-c4cnc([C@@H](NC(=O)[C@H](NC(=O)OCc5ccccc5)C(C)C)C(C)C)[nH]4)cc3)cc2)[nH]1 [Compound S-245],>100 fold
16,CC(C)C(NC(=O)C(=O)N1CCCCCC1)c1nc(-c2ccc(-c3ccc(-c4c[nH]c(C(NC(=O)C(=O)N5CCCCCC5)C(C)C)n4)cc3)cc2)c[nH]1 (centres unmarked) [Compound W-52],>100 fold
17,"COC(CO)(CC(C)C)C(=O)N[C@H](c1nc(-c2ccc(-c3ccc(-c4c[nH]c([C@@H](NC(=O)C(CO)(CC(C)C)OC)C(C)(C)C)n4)cc3)cc2)c[nH]1)C(C)(C)C (single isomer, unassigned) [Compound N-160A]",>100 fold
18,CC(C)(C)[C@H](NC(=O)C1CCCCO1)c1nc(-c2ccc(-c3ccc(-c4c[nH]c([C@@H](NC(=O)C5CCCCO5)C(C)(C)C)n4)cc3)cc2)c[nH]1 (some centres unmarked) [Compound Y-6],>100 fold
19,CC1(C)CCN(C(=O)C2CCC(F)(F)CC2)C1c1nc(-c2ccc(-c3ccc(-c4c[nH]c(C5N(C(=O)C6CCC(F)(F)CC6)CCC5(C)C)n4)cc3)cc2)c[nH]1 (centres unmarked) [Compound W-217],>10 fold
20,CC(C)[C@H](NC(=O)[C@H](NC(=O)OC1CCCC1)C(C)C)c1ncc(-c2ccc(-c3ccc(-c4cnc([C@@H](NC(=O)[C@H](NC(=O)OC5CCCC5)C(C)C)C(C)C)[nH]4)cc3)cc2)[nH]1 [Compound S-251],>100 fold
